Earlier results as cited in patent US20050095200A1, “Prokinetic drugs assistance to small intestine imaging” (priority 2003, published 2005).
Where two headings read alike, the source gives them in different places.

How the values were obtained:
[1] = Medline cross-correlation with 12,155 bleeding publications
[2] = for half-life: in vivo
stomach = settings: for food emptying half-life from the stomach: oral 15 mg Metoclopramide 30 minutes prior to tagged food; for subjects with barium emptied from the stomach after 60 minutes: 3 minutes after intake of barium
healthy subjects = settings: about 10 mg Cisapride by mouth
[3] = healthy subjects, about 30 mg/day Cisapride by mouth (10x3)
[4] = manometric measurement, intravenous injection of about 10 mg Cisapride

Compound: CCN(CC)CCNC(=O)c1cc(Cl)c(N)cc1OC [Metoclopramide, AMINO-4 CHLORO-5 N-(DIETHYLAMINO-2 ETHYL) METHOXY-2 BENZAMIDE]
- reports of bleeding from the digestive tract caused by the drug [1]: not a single description of bleeding damage
- safety profile (intravenous about 10 mg and oral about 20 mg): high safety profile
- half-life [2]: about 5 hours
- absorption when taken orally ([2]; oral): rapid and good
- bio-availability ([2]; oral): about 77%
- graph of plasma concentration at various times after oral administration ([2]; oral dose of 10 mg): linear
- emptying indigestible radio-opaque markers during the first hour (stomach; diabetics with gastroparesis, 10 mg Metoclopramide intravenously): lack of efficiency
- mean half-life of stomach emptying (stomach; diabetics with gastroparesis, semi-solid tagged substance, 30 mg Metoclopramide per day (3x10), down from 110): 1.12 h
- food emptying half-life from the stomach (stomach; healthy subjects): 1.2 h
- subjects with barium emptied from the stomach after 60 minutes (stomach; intravenous 10 mg Metoclopramide): 93.5%
- food emptying half-life from the stomach (stomach; patients with reflux esophagitis): 0.993 h
- intensity of segmentary contraction (small intestine; about single 20 mg dose of Metoclopramide): may be insufficient

Compound: COc1cc(N)c(Cl)cc1C(=O)NC1CCN(CCCOc2ccc(F)cc2)CC1OC (stereo not drawn) [Cisapride, CIS-4-AMINO-5-CHLORO-N-(1-(4-FLUOROPHENOXY) PROPYL)3 METHOXY-4-PIPERIDINYL)-2 METHOXYBENZAMIDE MONOHYDRATE]
- reports of bleeding from the digestive tract caused by the drug [1]: not a single report of bleeding from the digestive tract caused by Cisapride
- cases with abdominal discomfort (in vivo): about 16%
- cases with abdominal pain (in vivo): about 4%
- decrease of transit time of solid food (healthy subjects): about 20%
- half-life [2]: about 10 hours
- bio-availability ([2]; oral): about 40%
- stomach emptying t1/2 (stomach; about 10 mg Cisapride by mouth): about 78 min
- stomach emptying time, effect (stomach; about 10 mg Cisapride by mouth): not affected
- emptying indigestible radio-opaque markers during the first hour (stomach; diabetics with gastroparesis, 5 mg Cisapride intravenously): lack of efficiency
- subjects with barium emptied from the stomach after 60 minutes (stomach; intravenous 8 mg Cisapride): 85%
- change in the number of waves or in the wavelength (duodenum and jejunum; [3]): no change
- increase of amplitude in mmHg in the duodenum and jejunum (duodenum and jejunum; [3]): over 18.4%
- contraction amplitude in the jejunum increased by (duodenum and jejunum; [4]): about 43%
- contraction frequency (duodenum and jejunum; [4]): increased
- intensity of segmentary contraction (small intestine; daily dose of about 10 to 15 mg Cisapride): may be insufficient
